Measurements taken from patent US10091997B2, “Composition for inhibition of insect host sensing” (Vanderbilt University, priority 2010, dated 2018).
Entries after “also recorded” stand apart in the source; their conditions may differ.

Columns and labels:
[1] = test system: Un-transfected HEK293 cells; experiment: whole-cell patch clamp, control HEK293 cells (un-transfected or GFP alone); assay type: cell-based, human
Method: (§1) Currents from OR-expressing HEK293 cells were amplified with an Axopatch 200b Amplifier (Axon Instruments) and digitized through a Digidata 1322A (Axon Instruments). Electrophysiological data was recorded and analyzed using pCLAMP 10 (Axon Instruments). Electrodes were fabricated from quartz tubing (Sutter Instruments) and pulled to 4-6 MΩ for whole cell recording. Electrodes were filled with internal solution (120 mM KCl, 30 mM D-glucose, 10 mM HEPES, 2 mM MgCl2, 1.1 mM EGTA, and 0.1 CaCl2 (pH 7.35, 280 mOsm). External (bath) solution contained 130 mM NaCl, 34 mM D-glucose, 10 mM HEPES, 1.5 mM CaCl2, 1.3 mM KH2PO4, and 0.5 MgSO4 (pH 7.35, 300 mOsm). Compounds were diluted in external solution and locally perfused to the recording cell using Perfusion Pencil (Automate Scientific) and controlled by a ValveLink 8.2 controller (Automate Scientific). Whole cell recordings were sampled at 10 kHz and filtered at 5 kHz. Outside-out patches were obtained using 10-15MΩ electrodes pulled from standard glass capillaries (World Precision Instruments) and fire-polished with an MF-830 micro forge (Narishige). Single channel recordings were sampled at 20 kHz. Recordings were reduced to 1 kHz and low-pass filtered at 500 Hz for display and analysis using QuB (SUNY at Buffalo).

[2] = target: T1, DmOR83b (Drosophila melanogaster, UniProt Q9VNB5); experiment: whole-cell patch clamp, HEK cells transiently transfected with DmOR83b; assay type: cell-based; settings: HEK cells expressing DmOR83b, −60 mV
T1 construct: expressed in transfected cells; host or cells: Flp-In T-REx 293 (HEK), transient, pCI vector, GFP co-transfected
T1 sequence (Q9VNB5 1-486): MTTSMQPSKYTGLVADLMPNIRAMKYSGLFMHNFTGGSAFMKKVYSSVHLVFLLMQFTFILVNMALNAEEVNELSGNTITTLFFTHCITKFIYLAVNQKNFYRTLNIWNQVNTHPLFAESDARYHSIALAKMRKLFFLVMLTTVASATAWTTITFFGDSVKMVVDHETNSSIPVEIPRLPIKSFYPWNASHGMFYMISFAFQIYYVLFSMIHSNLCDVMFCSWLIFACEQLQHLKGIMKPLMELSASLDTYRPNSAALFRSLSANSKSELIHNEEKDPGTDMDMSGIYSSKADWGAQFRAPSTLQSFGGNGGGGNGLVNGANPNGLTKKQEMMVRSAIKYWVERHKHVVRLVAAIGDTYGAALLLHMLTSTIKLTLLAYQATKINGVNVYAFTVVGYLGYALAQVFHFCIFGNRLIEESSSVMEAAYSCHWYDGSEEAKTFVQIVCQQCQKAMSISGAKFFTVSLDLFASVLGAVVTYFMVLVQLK
From the text: (§2) For transient transfections, ORs were cloned into pCI (Promega) and transfected into Flp-In™ T-REx™293 cell lines (Invitrogen) with Fu GENE6 (Roche). For the creation of stable cell lines, a cell culture expression vector capable of expressing AgORco in conjunction with a conventional OR, pcDNA5/FRT/TO (Invitrogen) was modified to create two individual expression cassettes each under the control of a separate CMV/TetO2 promoter and a BGH poly-adenylation signal. Cells (as above) were transfected with the modified pcDNA5 plasmid along with POG44 (a Flp recombinase expression plasmid) to facilitate site-specific recombination. Stable cell lines were selected using Hygromycin B (Invitrogen). Cells were maintained in DMEM (Invitrogen) supplemented with 10% Tetracycline-free FBS (HyClone) and 15 μg/ml Blasticidin. […] Baseline readings were taken for 20 s before automated addition of compound previously diluted in DMSO and assay buffer. […]
(§3) Currents from OR-expressing HEK293 cells were amplified with an Axopatch 200b Amplifier (Axon Instruments) and digitized through a Digidata 1322A (Axon Instruments). Electrophysiological data was recorded and analyzed using pCLAMP 10 (Axon Instruments). […]

[3] = target: T2, AgORco (Anopheles gambiae, UniProt Q7QCC7); experiment: whole-cell patch clamp, HEK293 cells stably expressing AgORco alone; assay type: cell-based
T2 construct: expressed in transfected cells
T2 sequence (Q7QCC7 1-478): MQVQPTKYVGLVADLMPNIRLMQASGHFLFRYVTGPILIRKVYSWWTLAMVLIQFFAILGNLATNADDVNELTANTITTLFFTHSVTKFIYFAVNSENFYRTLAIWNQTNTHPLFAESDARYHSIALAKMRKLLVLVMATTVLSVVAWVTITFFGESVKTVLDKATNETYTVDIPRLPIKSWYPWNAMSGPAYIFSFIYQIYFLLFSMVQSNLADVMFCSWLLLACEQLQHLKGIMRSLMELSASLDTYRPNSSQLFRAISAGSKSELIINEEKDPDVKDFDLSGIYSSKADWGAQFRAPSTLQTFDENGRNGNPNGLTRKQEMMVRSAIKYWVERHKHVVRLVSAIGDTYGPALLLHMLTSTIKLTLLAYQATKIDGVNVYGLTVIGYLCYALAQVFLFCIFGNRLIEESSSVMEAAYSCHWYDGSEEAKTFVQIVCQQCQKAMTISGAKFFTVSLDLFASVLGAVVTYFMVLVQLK
Method: as §1
(§4) To test the hypothesis that VUAA1 directly agonized AgORco, whole-cell patch clamp responses were examined in AgORco+AgOR10 expressing cells as well HEK293 cells stably expressing AgORco alone. […] The VUAA1-dependent currents in AgORco+AgOR10 cells resembled those resulting from application of benzaldehyde, an orthosteric agonist of AgOR10 (FIG. 3C) (Wang, 2010; Carey, 2010). AgORco+AgOR10 cells were more sensitive to VUAA1 than AgORco cells, producing inward currents at −5.0 log M, a concentration at which AgORco had no response. […] To investigate the specificity of VUAA1 agonism, the inventors transiently transfected HEK cells with the AgORco orthologs of Drosophila melanogaster and Heliothis virescens, DmOR83b and HvOR2 respectively.

[4] = test system: AgORco+AgOR10; experiment: whole-cell patch clamp, HEK293 cells expressing AgORco+AgOR10; assay type: cell-based, Anopheles gambiae; settings: AgORco+AgOR10 cells
Method: as §1, §4

[5] = test system: HvOR2; experiment: whole-cell patch clamp, HEK cells transiently transfected with HvOR2; assay type: cell-based, Heliothis virescens; settings: HEK cells expressing HvOR2, −60 mV
From the text: as §2, §3

With `CCc1ccc(NC(=O)CSc2nnc(-c3cccnc3)n2CC)cc1` [VUAA1] the “whole-cell currents in GFP alone cells” value ([1]; HEK cells transfected with GFP alone) was “no currents”, the “whole-cell currents in control cells” value ([1]; control / un-transfected HEK293 cells) was “no responses were observed; also recorded: did not respond” and the whole-cell currents [2] was “robust inward currents”. For the same compound, the whole-cell currents ([3]; AgORco alone cells, clamped at −60 mV) was “concentration-dependent inward currents”, the “whole-cell response at −5.0 log M” value ([3]; AgORco alone cells, −5.0 log M) was “no response” and the reversal potential ([3]; AgORco alone, mean±s.e.m.) was “+0.4±1.1 mV”. The whole-cell currents ([4]; clamped at −60 mV) was “concentration-dependent inward currents”, the “concentration producing inward currents” value ([4]; whole-cell) was −5.0 log M and the whole-cell currents [5] was “robust inward currents”.
